Here are results for one molecule from article PMC9118179, “Ginkgolic acid and anacardic acid are reversible inhibitors of SARS-CoV-2 3-chymotrypsin-like protease” (Cell & Bioscience, 2022).

For test [1], the target named is T1, SARS-CoV-2 3CL^pro (Severe acute respiratory syndrome coronavirus 2, UniProt P0DTD1).
T1 construct: gene rep
As to the kind of experiment: FRET protease assay, Lineweaver-Burk secondary plot. Type of test: biochemical.

Test [2] addresses T1, SARS-CoV-2 3CL^pro. As to the kind of experiment: FRET protease assay. Type of test: biochemical.

By Ki is commonly meant a dissociation constant, usually derived from enzyme kinetics or from competition with a known ligand. Low values mean a stronger hold on the target, high ones a looser hold on the target. For orientation: IC50 means the concentration at which inhibition is half-maximal. Read a low IC50 as higher potency. Take `CCCCCCCCCCCCCCCc1cccc(O)c1C(=O)O` [AA, anacardic acid]: the affinity at SARS-CoV-2 3CL^pro [1] corresponds to a Ki of 1.87 µM. At SARS-CoV-2 3CL^pro [2], it took 7.6 ± 0.3 µM to reach half-maximal inhibition (IC50).
